{
  "source": "ChEMBL document CHEMBL5465560",
  "about": "“Selectivity Literature for EUbOPEN Chemogenomic Library” (2024)",
  "key": {"[1]": {"target": "Tyrosine-protein kinase ABL1 (Homo sapiens, UniProt P00519)", "sequence (P00519 whole entry)": "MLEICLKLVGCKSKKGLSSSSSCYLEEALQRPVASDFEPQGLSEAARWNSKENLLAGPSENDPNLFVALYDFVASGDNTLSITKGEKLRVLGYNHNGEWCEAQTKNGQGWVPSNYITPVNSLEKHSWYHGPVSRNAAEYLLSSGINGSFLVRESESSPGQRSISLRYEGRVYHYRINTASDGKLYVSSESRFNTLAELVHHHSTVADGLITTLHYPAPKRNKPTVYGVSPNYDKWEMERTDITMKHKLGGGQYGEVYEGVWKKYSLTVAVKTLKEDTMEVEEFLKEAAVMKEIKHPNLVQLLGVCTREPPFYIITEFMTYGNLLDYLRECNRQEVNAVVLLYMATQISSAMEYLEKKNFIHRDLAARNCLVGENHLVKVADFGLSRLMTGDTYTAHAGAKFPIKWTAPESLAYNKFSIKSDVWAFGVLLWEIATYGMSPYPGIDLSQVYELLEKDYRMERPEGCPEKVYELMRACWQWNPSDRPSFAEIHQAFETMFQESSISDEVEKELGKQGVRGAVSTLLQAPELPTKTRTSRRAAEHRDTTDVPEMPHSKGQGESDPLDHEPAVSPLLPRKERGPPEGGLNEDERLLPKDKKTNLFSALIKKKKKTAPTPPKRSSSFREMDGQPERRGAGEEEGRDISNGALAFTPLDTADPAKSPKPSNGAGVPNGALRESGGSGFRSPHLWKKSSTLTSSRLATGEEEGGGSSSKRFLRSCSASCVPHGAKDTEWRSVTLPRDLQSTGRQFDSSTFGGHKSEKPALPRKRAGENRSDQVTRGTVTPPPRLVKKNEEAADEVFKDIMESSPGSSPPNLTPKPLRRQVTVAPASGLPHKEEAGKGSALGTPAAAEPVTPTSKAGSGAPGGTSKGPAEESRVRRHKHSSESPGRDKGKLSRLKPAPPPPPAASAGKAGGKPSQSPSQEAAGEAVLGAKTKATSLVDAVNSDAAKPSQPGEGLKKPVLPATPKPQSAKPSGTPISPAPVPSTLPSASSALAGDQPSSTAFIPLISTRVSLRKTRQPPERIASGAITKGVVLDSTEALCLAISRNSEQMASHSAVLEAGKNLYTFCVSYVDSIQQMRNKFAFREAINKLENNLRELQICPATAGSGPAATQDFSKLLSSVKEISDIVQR", "assay": "Selectivity interaction (Kinase panel (KiNativ target engagement assay in Jurkat cells)) EUB0001635a ABL1", "assay_type": "cell-based", "details": "Selectivity number of off-targets 0.0, Selectivity number of targets 233.0, Source Knowledge https://www.sciencedirect.com/science/article/pii/S2451945619300674?via%3Dihub, at 1 µM"}, "[2]": {"target": "T1, Histone-arginine methyltransferase CARM1 (Homo sapiens) (UniProt Q86X55)", "T1 sequence (whole entry)": "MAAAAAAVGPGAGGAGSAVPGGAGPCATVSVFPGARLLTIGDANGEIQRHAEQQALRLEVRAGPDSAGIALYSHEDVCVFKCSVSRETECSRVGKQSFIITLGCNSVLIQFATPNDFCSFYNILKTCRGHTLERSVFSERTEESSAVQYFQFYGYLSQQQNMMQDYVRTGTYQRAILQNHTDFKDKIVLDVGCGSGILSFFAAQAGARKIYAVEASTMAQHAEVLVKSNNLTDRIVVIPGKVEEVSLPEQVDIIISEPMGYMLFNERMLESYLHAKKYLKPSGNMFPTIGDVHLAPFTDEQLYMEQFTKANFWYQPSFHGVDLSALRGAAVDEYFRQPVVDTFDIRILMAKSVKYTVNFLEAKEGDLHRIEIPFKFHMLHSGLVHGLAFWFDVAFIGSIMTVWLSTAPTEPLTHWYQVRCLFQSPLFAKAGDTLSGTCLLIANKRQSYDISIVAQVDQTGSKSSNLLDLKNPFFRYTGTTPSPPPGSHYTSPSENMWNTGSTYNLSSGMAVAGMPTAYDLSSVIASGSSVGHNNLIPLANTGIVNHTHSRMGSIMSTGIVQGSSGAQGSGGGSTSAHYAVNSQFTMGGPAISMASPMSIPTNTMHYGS", "details": "KMS-12-BM, at 3 µM"}, "[3]": {"target": "T2, Mitogen-activated protein kinase kinase kinase 19 (Homo sapiens) (UniProt Q56UN5)", "T2 sequence (whole entry)": "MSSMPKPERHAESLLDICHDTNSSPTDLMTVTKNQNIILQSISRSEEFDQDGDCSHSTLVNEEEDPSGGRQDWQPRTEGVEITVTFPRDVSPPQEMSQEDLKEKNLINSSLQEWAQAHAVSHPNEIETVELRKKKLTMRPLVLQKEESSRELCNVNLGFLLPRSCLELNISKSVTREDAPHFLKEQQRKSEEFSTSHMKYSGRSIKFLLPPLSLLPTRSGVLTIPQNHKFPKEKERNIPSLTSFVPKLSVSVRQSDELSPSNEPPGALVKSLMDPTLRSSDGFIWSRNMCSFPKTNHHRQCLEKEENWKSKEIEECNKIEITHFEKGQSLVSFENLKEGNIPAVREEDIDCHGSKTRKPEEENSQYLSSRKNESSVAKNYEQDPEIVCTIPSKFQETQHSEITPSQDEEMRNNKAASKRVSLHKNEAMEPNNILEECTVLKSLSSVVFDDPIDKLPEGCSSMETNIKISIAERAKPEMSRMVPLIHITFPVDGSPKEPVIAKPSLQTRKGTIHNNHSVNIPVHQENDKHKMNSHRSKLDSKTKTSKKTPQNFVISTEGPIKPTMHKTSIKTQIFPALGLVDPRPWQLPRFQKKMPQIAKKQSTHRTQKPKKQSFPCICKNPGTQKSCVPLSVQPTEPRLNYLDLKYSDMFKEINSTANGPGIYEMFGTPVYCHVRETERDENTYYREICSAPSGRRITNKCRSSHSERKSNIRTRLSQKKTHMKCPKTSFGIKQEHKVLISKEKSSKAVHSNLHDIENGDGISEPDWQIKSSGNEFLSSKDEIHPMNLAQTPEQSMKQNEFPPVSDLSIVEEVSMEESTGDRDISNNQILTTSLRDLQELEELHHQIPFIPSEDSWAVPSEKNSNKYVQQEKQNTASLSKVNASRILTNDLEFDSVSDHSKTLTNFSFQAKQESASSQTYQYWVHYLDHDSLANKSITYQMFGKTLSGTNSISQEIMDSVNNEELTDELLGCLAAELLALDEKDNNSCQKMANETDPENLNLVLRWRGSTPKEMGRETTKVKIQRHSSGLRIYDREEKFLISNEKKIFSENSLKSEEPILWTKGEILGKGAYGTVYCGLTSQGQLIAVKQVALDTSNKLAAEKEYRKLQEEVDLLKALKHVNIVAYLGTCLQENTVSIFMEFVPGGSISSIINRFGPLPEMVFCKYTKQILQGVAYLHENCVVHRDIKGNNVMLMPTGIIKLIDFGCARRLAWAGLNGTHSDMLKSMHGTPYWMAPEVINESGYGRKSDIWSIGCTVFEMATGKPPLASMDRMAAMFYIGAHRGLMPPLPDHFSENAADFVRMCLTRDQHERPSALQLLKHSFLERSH", "assay": "Selectivity interaction (KinomeScan (DiscoverX)) EUB0000695a MAP3K19", "details": "at 100 nM"}, "[4]": {"target": "Ribosomal protein S6 kinase alpha-6 (Homo sapiens, UniProt Q9UK32)", "sequence (Q9UK32 whole entry)": "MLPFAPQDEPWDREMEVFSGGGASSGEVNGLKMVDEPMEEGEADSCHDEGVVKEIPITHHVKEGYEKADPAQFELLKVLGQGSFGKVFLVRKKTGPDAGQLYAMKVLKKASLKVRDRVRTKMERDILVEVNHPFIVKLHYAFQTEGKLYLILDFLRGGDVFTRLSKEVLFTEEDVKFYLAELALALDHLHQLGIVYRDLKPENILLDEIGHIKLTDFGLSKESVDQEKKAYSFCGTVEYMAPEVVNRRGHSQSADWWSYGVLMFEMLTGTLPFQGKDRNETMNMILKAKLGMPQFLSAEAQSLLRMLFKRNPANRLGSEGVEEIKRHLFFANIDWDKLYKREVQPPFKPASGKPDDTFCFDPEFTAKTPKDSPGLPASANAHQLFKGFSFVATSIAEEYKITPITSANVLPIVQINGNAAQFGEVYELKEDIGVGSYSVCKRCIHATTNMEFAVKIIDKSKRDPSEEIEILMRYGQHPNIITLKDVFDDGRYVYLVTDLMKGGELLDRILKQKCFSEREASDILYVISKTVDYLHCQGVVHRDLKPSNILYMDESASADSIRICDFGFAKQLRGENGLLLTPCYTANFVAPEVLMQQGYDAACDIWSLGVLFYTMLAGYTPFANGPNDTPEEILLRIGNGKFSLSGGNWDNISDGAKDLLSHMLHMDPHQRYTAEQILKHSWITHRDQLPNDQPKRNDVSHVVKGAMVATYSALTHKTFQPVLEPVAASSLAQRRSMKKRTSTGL", "assay": "Selectivity interaction (KinomeScan (DiscoverX)) EUB0001049a RPS6KA6", "details": "at 1 µM"}, "[5]": {"target": "Serine/threonine-protein kinase 38-like (Homo sapiens) (UniProt Q9Y2H1)", "sequence (Q9Y2H1 2-464 limits assumed)": "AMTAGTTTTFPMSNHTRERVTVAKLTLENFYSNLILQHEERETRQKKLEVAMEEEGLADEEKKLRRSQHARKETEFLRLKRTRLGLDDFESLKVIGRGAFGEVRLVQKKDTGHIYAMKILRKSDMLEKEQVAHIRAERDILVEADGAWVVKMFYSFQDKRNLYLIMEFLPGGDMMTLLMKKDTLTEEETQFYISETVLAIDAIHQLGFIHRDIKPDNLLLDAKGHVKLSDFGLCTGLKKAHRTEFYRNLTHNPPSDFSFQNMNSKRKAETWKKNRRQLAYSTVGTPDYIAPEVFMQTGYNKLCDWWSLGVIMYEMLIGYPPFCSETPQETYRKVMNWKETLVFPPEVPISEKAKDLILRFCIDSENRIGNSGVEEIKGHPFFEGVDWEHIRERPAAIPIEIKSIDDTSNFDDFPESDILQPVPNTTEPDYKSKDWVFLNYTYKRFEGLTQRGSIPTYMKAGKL", "assay": "Selectivity interaction (ActivX KiNativ screen (kinase selectivity in THP-1 cell lysates)) EUB0000639a STK38L", "assay_type": "subcellular", "details": "lysate"}},
  "data": [
    {"compound": "C=CC(=O)Nc1ccc(C(=O)Nc2[nH]nc3c2CN(C(=O)N[C@H](CN(C)C)c2ccccc2)C3(C)C)cc1", "values": [
      {"measurement": "% of engagement", "setting": "[1]", "value": -19.4, "unit": "%"}
    ]},
    {"compound": "CNCCN1CCC(c2cc(CN(C)C(=O)c3cccc(Oc4ccccc4)c3)ccn2)CC1", "values": [
      {"measurement": "% of growth rate", "setting": "[2]", "value": -8.2, "unit": "%"}
    ]},
    {"compound": "Cc1cc(F)c(C(=O)Nc2cccc(-c3nncn3C(C)C)n2)cc1-n1cnc(C2CC2)c1", "values": [
      {"measurement": "% of control", "setting": "[3]", "value": 57, "unit": "%"}
    ]},
    {"compound": "COc1cc(Nc2nc(C)cc(-c3cnn4nc(OC)ccc34)n2)cc(C(F)(F)F)c1", "values": [
      {"measurement": "% of control", "setting": "[4]", "value": 82, "unit": "%"}
    ]},
    {"compound": "CC[C@@H]1[C@H](F)C(=O)N[C@@H]1COc1nccc2cc(C(N)=O)c(OC)cc12", "note": "[ZIMLOVISERTIB]", "values": [
      {"measurement": "% of inhibition", "setting": "[5]; at 0.01 µM", "value": 5.2, "unit": "%"},
      {"measurement": "% of inhibition", "setting": "[5]; at 0.04 µM", "value": -2, "unit": "%"},
      {"measurement": "% of inhibition", "setting": "[5]; at 0.2 µM", "value": 12, "unit": "%"},
      {"measurement": "% of inhibition", "setting": "[5]; at 1 µM", "value": 51.5, "unit": "%"},
      {"measurement": "% of inhibition", "setting": "[5]; at 5 µM", "value": 82.9, "unit": "%"}
    ]}
  ]
}
